# Results reported in US20230056593A1, “ARGININE ASPARTATE-CONTAINING COMPOSITION FOR SUPPRESSING OLD PERSON SMELL” (HUMEDIX CO., LTD., priority 2020, published 2023).
# Key:
# TNF-α = experiment: Anti-inflammatory effect: TNF-α expression in UVB-stimulated HaCaT cells (RT-PCR); type: cell-based; conditions: UVB stimulation
# Experimental: HaCaT cells were seeded in a 12-well plate by 1×10^5 cells/well, and after 24 hours, they were replaced with a basal medium and starvated for 6 hours. After that, the medium was replaced with the basal medium containing the sample and the cells were incubated for 24 hours. After removal of the medium, UVB stimulation was applied, and the basal medium was added and the cells were cultured for 24 hours. The medium was completely removed and the cells were washed twice with PBS. The cells were disrupted using TRIsure to recover RNA, and then RT-PCR was performed to amplify TNF-α. Electrophoresis was performed on an agarose gel and the expression rate was measured using the Gel Documentation system. 200 μM dexamethasone was used as a positive control.
# MMP-1 = MMP-1 expression level in human skin fibroblasts (PCR); type: cell-based
# Experimental: Human skin fibroblasts were cultured at a concentration of 1×10^4/well. The cells were treated with arginine aspartate for each concentration, and the MMP-1 expression level was measured using a PCR device to evaluate the ability of arginine aspartate to inhibit MMP-1. A group in which the cells were not treated with the sample was used as a control group (CON), and a group in which the cells were treated with 50 ppm of adenosine was used as a positive control group.
# [1] = Removal of 2-nonenal by arginine aspartate (HPLC over time); conditions: 0.05 wt % 2-nonenal treated with 2.5 wt % arginine aspartate, room temperature, after 20 hours
# Experimental: The ability of the arginine aspartate of Formula (I) according to the present invention to remove 2-nonenal was evaluated.
# 2-Nonenal was dissolved at a concentration of 0.1 wt % (1000 ppm) in 50 wt % ethanol aqueous solution containing 0.5 wt % Tween 80. Arginine aspartate was dissolved at a concentration of 5 wt % (50000 ppm) in a 50 wt % ethanol aqueous solution containing 0.5 wt % Tween 80.
# The two solutions were mixed in a 1:1 ratio by weight to make a mixed solution. The mixed solution was left at room temperature and the change in the amount of 2-nonenal was analyzed by HPLC over time. That is, the change in the amount of 2-nonenal over time was analyzed by treating 0.05 wt % 2-nonenal with arginine aspartate at a concentration of 2.5 wt %.
# Further, the 2-nonenal solution prepared above was diluted two-fold with a 50 wt % ethanol aqueous solution containing 0.5 wt % Tween 80 and the diluted solution was left at room temperature to analyze the change in the amount of 2-nonenal over time by HPLC. That is, the change in the amount of 2-nonenal over time was analyzed in a condition of 0.05 wt % of 2-nonenal untreated with arginine aspartate.
# Procollagen = experiment: Collagen synthesis ability in human skin fibroblasts (Type I Procollagen C-Peptide EIA kit); type: cell-based
# Experimental: Human skin fibroblasts were cultured at a concentration of 1×10^4/well. The cells were treated with each sample, and the amount of synthesized collagen was measured to evaluate the collagen synthesis ability. The cells were treated with adenosine at a concentration of 50 ppm as a positive control and arginine aspartate at a concentration of 10, 20 and 40 ppm. Collagen quantification was performed using a Type I Procollagen C-Peptide EIA kit (Takara, Japan). A group in which the cells were not treated with sample was used as a control group (CON).
# mushroom tyrosinase = experiment: Whitening effect: mushroom tyrosinase activity (absorbance at 490 nm); type: biochemical; conditions: for Tyrosinase activity (% of control): 37° C. for 10 minutes, pH 6.8
# Experimental: After adding 200 μL of 0.1M phosphate buffer (pH 6.8) to the Eppen tube, 20 μL of each sample solution diluted at each concentration was added. Then, 20 μL of mushroom tyrosinase (2,000 units/μL) and 200 μL of 0.3% tyrosine were added in order, and then reacted at 37° C. for 10 minutes. After 200 μL of this solution was transferred to a 96-well plate, absorbance was measured at 490 nm using an ELISA reader. 100 ppm arbutin was used as a positive control.
compound,measurement,setting,value
arginine aspartate,TNF-α gene expression level (% of control),TNF-α; 10 ppm,76.0 % of control
same,TNF-α gene expression level (% of control),TNF-α; 20 ppm,72.9 % of control
same,TNF-α gene expression level (% of control),TNF-α; 40 ppm,72.6 % of control
same,decrease in TNF-α expression level,TNF-α; 40 ppm,37.4%
same,MMP-1 gene expression level (% of control),MMP-1; 10 ppm,86.7 % of control
same,MMP-1 gene expression level (% of control),MMP-1; 20 ppm,82.2 % of control
same,MMP-1 gene expression level (% of control),MMP-1; 40 ppm,76.6 % of control
same,inhibitory effect on MMP-1,MMP-1; 40 ppm,23.4%
same,amount of 2-nonenal decreased,[1],74%
same,amount of 2-nonenal left compared to the initial 100% by weight,[1],26 % by weight
same,collagen synthesis compared to the control group (CON),"Procollagen; 10, 20 and 40 ppm",increase in collagen synthesis
same,Type I procollagen C-peptide level (% of control),Procollagen; 10 ppm,123.6 % of control
same,Type I procollagen C-peptide level (% of control),Procollagen; 20 ppm,133.0 % of control
same,Type I procollagen C-peptide level (% of control),Procollagen; 40 ppm,136.8 % of control
same,Tyrosinase activity (% of control),mushroom tyrosinase; 10 ppm,72.5 % of control
same,inhibition in tyrosinase activity,mushroom tyrosinase; 100 ppm,28.3%
same,Tyrosinase activity (% of control),mushroom tyrosinase; 100 ppm,71.7 % of control
"Nc1ncnc2c1ncn2[C@@H]1O[C@H](CO)[C@@H](O)[C@H]1O [Adenosine, adenosine, reference compound]",MMP-1 gene expression level (% of control),MMP-1; 50 ppm,73.9 % of control
same,Type I procollagen C-peptide level (% of control),Procollagen; 50 ppm,142.2 % of control
"C[C@@H]1C[C@H]2[C@@H]3CCC4=CC(=O)C=C[C@]4(C)[C@@]3(F)[C@@H](O)C[C@]2(C)[C@@]1(O)C(=O)CO [Dexamethasone, dexamethasone, reference compound]",TNF-α gene expression level (% of control),TNF-α; 50 ppm (table),66.9 % of control
"OC[C@H]1O[C@@H](Oc2ccc(O)cc2)[C@H](O)[C@@H](O)[C@@H]1O [Arbutin, arbutin, reference compound]",Tyrosinase activity (% of control),mushroom tyrosinase; 10 ppm,93.6 % of control
same,Tyrosinase activity (% of control),mushroom tyrosinase; 100 ppm,76.7 % of control
